{
  "source": "patent US9879243B2",
  "about": "“Culture medium for cell growth and transfection” (LIFE TECHNOLOGIES CORPORATION, priority 2001, dated 2018)",
  "key": {"[1]": {"test_system": "293 cells", "experiment": "β-galactosidase expression after transfection (pCMV-SPORT-β-gal, LIPOFECTAMINE 2000) of 293 cells in monolayer culture, 24-well plates", "assay_type": "cell-based, human", "conditions": "Table 8, replacement compounds 25 μM in test media, 24 hrs post-transfection", "description": "When cultured in suspension, cells were split to 3×10^5 viable cells per ml at each passage. On the week of transfection cells were seeded at 3×10^5 viable cells per ml. After ˜48 hrs of growth (day 2) cells were vortexed for 30 seconds and counted and appropriate volumes used for transfection as described in procedures below.\nIn addition, the base media comprises 2.4 g/L NaHCO3, 2.98 g/L Hepes, 4 mM L-glutamine and 3 ml/L PLURONIC F-68 (Invitrogen Corp., Carlsbad, Calif.).\nThe osmolarity is adjusted to from about 275-310 mOsm, preferably about 280 mOsm and the pH is adjusted to from about 7.0 to about 7.45 preferably about 7.4 respectively.\nThree wells were set up for each treatment. A volume of media corresponding to 3×10^6 viable cells was centrifuged. The supernatant was removed and the cells re-suspended in 600 μl test media. Each well of a 24 well plate received 200 μl of the re-suspended cells.\nTo prepare the nucleic acid for the transfection experiments, 93 μl test media+3 μl DNA+24 μl LIPOFECTAMINE 2000 were combined in a microfuge tube and complexed for 30 minutes. A 40 μl aliquot of complex was added to each well. 250 μl test media was added to each well five hours after addition of complex. The final cell concentration was 1×10^6 viable cells per well; the final DNA concentration was 1 μg per 1×10^6 viable cells and the final LIPOFECTAMINE 2000 concentration was 8 μl per 1×10^6 viable cells.\n24 hrs post-transfection, samples were collected for β-galactosidase quantitation. The contents of duplicate wells were pooled (i.e. ˜2×10^6 cells for the assay) for each sample and transferred to a microfuge tube. The cells were centrifuged, the supernatant was removed and the cells were re-suspended in 1 ml of D-PBS. The cells were pelleted a second time and re-suspended in 1 ml of D-PBS. The samples were then stored at −70° C. Prior to the assay for β-galactosidase, samples were freeze-thawed a total of five times.\n293 cells were grown in monolayer culture in the presence of the various replacement compounds indicated and transfection experiments performed as described above. The results are shown in Table 8 and the values are β-galactosidase activity expressed as nanograms of β-galactosidase per 2×10^6 cells. A comparison was made between the transfection efficiency of DNA complexes formed in D-MEM medium and DNA complexes formed in test medium. […]\n(§1) For cells transfected in 24-well plates, cells densities used were 1×10^6 viable cells per well."}, "[2]": {"test_system": "293 cells", "experiment": "X-gal in situ staining, % transfection efficiency, 293 cells in 24-well plates", "assay_type": "cell-based, human", "conditions": "Example 7", "description": "The third well of each treatment was used for in situ staining for β-galactosidase activity (i.e., ˜1×10^6 cells).\nThe transfection efficiency of cells grown in the presence of ZnSO4+ chelating agent as a replacement for insulin was tested at various concentrations of chelator and ZnSO4 and the results are shown in Table 10. Cells were prepared in monolayer culture in base medium containing the indicated supplements and transfected and assayed as described above.\n293 cells were grown in monolayer culture in base media supplemented with the indicated chelator and metal salt at the indicated concentrations. The concentration of the chelator is given in μmoles/l and the concentration of the metal salt is given in μgrams/ml. […] The concentration of the cells in the media was 1×10^6 cell/ml, the concentration of DNA used was 1 μg DNA/10^6 cells, the concentration of LIPOFECTAMINE 2000 used was 8 μl/10^6 cells.\nas §1"}},
  "data": [
    {"molecule": "Diethylenetriamine Penta-Acetic Acid•Ferrous Sulfate", "values": [
      {"measurement": "β-galactosidase activity; D-MEM used for complexing, Test media to re-suspend cells", "setting": "[1]", "result": "234 nanograms of β-galactosidase per 2×10^6 cells"},
      {"measurement": "β-galactosidase activity; Test Media used for complexing and to re-suspend cells", "setting": "[1]", "result": "720 nanograms of β-galactosidase per 2×10^6 cells"}
    ]},
    {"molecule": "CCc1occc(=O)c1O", "note": "[2-Ethyl-3-Hydroxy-4-Pyrone]", "values": [
      {"measurement": "β-galactosidase activity; D-MEM used for complexing, Test media to re-suspend cells", "setting": "[1]", "result": "378 nanograms of β-galactosidase per 2×10^6 cells"},
      {"measurement": "β-galactosidase activity; Test Media used for complexing and to re-suspend cells", "setting": "[1]", "result": "1827 nanograms of β-galactosidase per 2×10^6 cells"},
      {"measurement": "X-gal staining transfection efficiency", "setting": "[2]; media with 1× ZnSO4", "result": "~40", "unit": "%"},
      {"measurement": "X-gal staining transfection efficiency", "setting": "[2]; media with insulin", "result": "50-60%"}
    ]}
  ]
}
